From patent publication US11414415B2, “6H-imidazo[4,5,1-ij]quinolone, synthesis method and use thereof” (HANGZHOU NORMAL UNIVERSITY, priority 2020, dated 2022) come the findings set out here.

The first assay concerns A549 (lung cancer cell). In words: MTT tumor cell proliferation assay on A549 lung cancer cells. It is filed as cell-based. The conditions noted are these: Homo sapiens, 48 h, 44 h culture + 4 h MTT, read at 570 nm, sample concentration 0.5 mg/mL (water as solvent). On the procedure:
Biological activity assay was conducted on compounds I-d to I-f prepared in the above examples:
Original osimertinib was used as control.
Specific procedure was as follows: plating A549 cells in a 96-well plate at a cell density of 2×10^4 cells/mL; after placing in an incubator overnight at 37° C. in 5% CO2, adding samples to be screened (sample concentrations are given in Table 1; medication groups were given 10 μL of the drug at the corresponding concentration per well, and blank control group was given 10 μL of PBS per well); after culturing for 44 h, adding 10 μL of MTT per well to culture for additional 4 h; dissolving in DMSO, shaking, and detecting on a microplate reader at 570 nm.
Inhibitory concentration 50 (IC50) values of 6H-imidazo[4,5,1-ij]quinolone derivatives with structures as shown in formulas I-d to I-f and control drug original osimertinib against A549 (lung cancer cell) were detected.
On to `C=CC(=O)Nc1cc(Nc2nccc(-c3cn(C)c4ccccc34)n2)c(OC)cc1N(C)CCN(C)C` [Osimertinib, osimertinib, reference compound], for which the IC50 was found to be 9.74 µM.
Still for that read-out and setting: the result for `COc1cc2nc(-c3ccccc3)n3ccc(=O)c(c1)c23` [I-f] reads 12.3 µM.
On the same count and under the same terms, the result for `Cc1ccc(-c2nc3cccc4c(=O)ccn2c34)cc1` [I-a] reads 11.2 µM; that for `O=c1ccn2c(-c3ccc(F)cc3)nc3cccc1c32` [I-b], 15.3 µM.
On the same count and under the same terms, as for `O=c1ccn2c(C3CC3)nc3cccc1c32` [I-e], the figure is 21.1 µM.
Consider `O=c1ccn2c(-c3cccs3)nc3cccc1c32` [I-d], for which the IC50 came out at 9.9 µM.
`O=c1ccn2c(-c3ccccc3Cl)nc3cccc1c32` [I-c]: the IC50 amounted to 16.2 µM.

The assay is the same for the next values; noted with them: statement in words.
Take `O=c1ccn2c(-c3cccs3)nc3cccc1c32` [I-d]: the “IC50 value compared with osimertinib” value is reported as “equivalent to anti-lung cancer drug osimertinib”.
